Data taken from PubChem BioAssay AID1288 (Columbia University Molecular Screening Center, 2008).
Activity calls are given as the source filed them. The rule behind the calls is not given here.

Test: E-selectin induction blockers, endothelial cells – imaging, retest plus dose response, cell count, confirmation (AID 1288);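 note: 0% = stimulated vehicle wells and 100% = unstimulated vehicle wells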
Conditions: human endothelial cells, TNFa-induced E-selectin, imaging; at 2 µM; stronger effect = higher value

Cc1ccc(/C=c2\sc3n(c2=O)CN(c2cccc(Br)c2)CN=3)o1
inhibition: 3.58% (inactive)

O=C(Nc1cccc(-c2cn3ccccc3n2)c1)c1cccc(Cl)c1
inhibition: 8.96% (inactive)

CCOC(=O)c1ccc(-n2ccnc2)c(NC(=O)c2ccc(Cl)cc2)c1
inhibition: 11.1% (inactive)

O=C1c2ccccc2C(Nc2ccc(S(=O)(=O)N3CCCCCC3)cc2)N1Cc1ccco1 (stereo not given)
inhibition: 1.55% (inactive)

COc1ccc(N(CC(=O)Nc2ccc3c(c2)OCO3)S(C)(=O)=O)c(OC)c1
inhibition: -1.1% (inactive)

CSc1nc(=O)n2cc(C)ccc2n1
inhibition: 1.88% (inactive)

COc1ccc(C(=O)/C=C/Nc2ccc([N+](=O)[O-])cc2C)c(OC)c1
inhibition: 26.8% (inactive)

O=[N+]([O-])c1ccc(O)c(/C=N/Nc2ccc(Cl)nn2)c1
inhibition: 3.18% (inactive)

CCCn1c(CN2CCN(c3cccc(Cl)c3)CC2)nc2c1c(=O)n(C)c(=O)n2C
inhibition: 7.73% (inactive)

CCOC(=O)N1CCc2c(sc3c2c(=O)n(Cc2ccccc2)c(=O)n3Cc2cccc(C)c2)C1
inhibition: 5.64% (inactive)

CCn1c(SCC(=O)Nc2ccccc2OC)nnc1-c1cnccn1
inhibition: 6.59% (inactive)

Cc1ccc(-n2ncc3c(=O)n(CC(=O)N4CCCCCC4)cnc32)cc1
inhibition: -0.4% (inactive)

Cc1ccc(S(=O)(=O)N2CCN(C(=O)C3COc4ccccc4O3)CC2)cc1C (stereo not given)
inhibition: -0.52% (inactive)

O=C(C1CCCO1)N1CCN(c2c3c(nc4cc(-c5ccc(F)cc5)nn24)CCC3)CC1 (stereo not given)
inhibition: 5.9% (inactive)

Cn1c(=O)c2c(nc(SCC(=O)NC34CC5CC(CC(C5)C3)C4)n2C)n(C)c1=O
inhibition: 16.3% (inactive)

CC(C)=C1SC(N2CCN(c3ccc(C)cc3)CC2)=NC1=O
inhibition: -3.72% (inactive)

COc1ccc2c(c1)c1ncn(CCCN3CCOCC3)c(=O)c1n2C
inhibition: 1.07% (inactive)

CCOC(=O)C[n+]1c(C)sc2ccc(OC)cc21
inhibition: 5.31% (inactive)

O=c1cc(C(F)F)oc2c1ccc1ccccc12
inhibition: -6.72% (inactive)

Cc1ccc(NC(=O)CSc2nc3ccccc3c3nc(CCc4c(C)n[nH]c4C)nn23)cc1F
inhibition: 47.2% (inactive)

Fc1ccc(CNc2nc(-c3ccccc3)nc3ccccc23)cc1
inhibition: 26.5% (inactive)

Cc1c(NC(=O)c2c(N)n(-c3ccccc3)c3nc4ccccc4nc23)c(=O)n(-c2ccccc2)n1C
inhibition: 4.61% (inactive)

CN1CCN(C(c2ccc(F)cc2)c2nnnn2Cc2cccs2)CC1 (stereo not given)
inhibition: 10.2% (inactive)

Cn1cc(Cl)c(C(=O)NNC(=S)NCc2ccco2)n1
inhibition: 7.71% (inactive)

C=CCN1CCN(C(c2cc(OC)ccc2OC)c2nnnn2CC2CCCO2)CC1 (stereo not given)
inhibition: 31.2% (inactive)

COc1cccc(-c2cc3c(=O)n(-c4ccccc4)c(=S)[nH]c3s2)c1
inhibition: 24.4% (inactive)

Cc1ccc(/C([O-])=C(/C(=S)NCc2ccccc2)[n+]2cccc(CO)c2)cc1[N+](=O)[O-]
inhibition: -5.81% (inactive)

CCCc1c(O)c2ccccc2[nH]c1=O
inhibition: 0.12% (inactive)

Cc1nc(=O)c(-c2ccccc2)c(C)n1-c1ccc(S(N)(=O)=O)cc1
inhibition: 42.4% (inactive)

Cc1cc(=O)[nH]c(SCC(=O)NCc2ccco2)n1
inhibition: 5.37% (inactive)

O=C(Nc1nnc(C2CC2)s1)c1cc(-c2ccccc2)nn1-c1ccccc1
inhibition: 6.68% (inactive)

COc1cc(S(=O)(=O)NC2CCCCC2C)ccc1Cl (stereo not given)
inhibition: 9.69% (inactive)

Cc1ccc(C(=O)n2c(=S)nc3ccccn32)cc1
inhibition: 22.2% (inactive)

COc1ccc(-c2nc(CNS(=O)(=O)c3ccc(OC)c(OC)c3)cs2)cc1
inhibition: 8% (inactive)

CCOC(=O)C(CC)n1nc(C)n2c(cc3sccc32)c1=O (stereo not given)
inhibition: 16.1% (inactive)

Cc1ccc(-n2c(SCC(=O)Nc3nccs3)nc3c(c2=O)SCC3)cc1
inhibition: 5.08% (inactive)

Cc1ccc(C(C)n2cc(C(=O)NCCN3CCN(C)CC3)nn2)cc1 (stereo not given)
inhibition: 22.4% (inactive)

Cc1cccc(NC(=S)Nc2ccccn2)c1C
inhibition: -0.54% (inactive)

O=C(Nc1nnc(-c2ccco2)s1)C1CC1
inhibition: 1.62% (inactive)

C=CCn1c(COc2cccc(C)c2C)nnc1SCC(=O)N1CCN(c2ccccc2)CC1
inhibition: 5.6% (inactive)

O=C(c1c(Cl)nc2sccn12)N1CCCc2ccccc21
inhibition: 0.11% (inactive)

O=C(CCn1nnc2ccccc21)Nc1nnc(Cc2ccc(F)cc2)s1
inhibition: 5.36% (inactive)

Cn1cccc1/C=C1\C(=O)NC(=O)N(CCC2=CCCCC2)C1=O
inhibition: 6.01% (inactive)

COc1ccc(C)cc1-n1nnnc1SCC(=O)Nc1cccnc1Cl
inhibition: -16.5% (inactive)

Cc1cc(C)c2cc(CN(Cc3ccc4c(c3)OCO4)Cc3nnnn3Cc3ccco3)c(=O)[nH]c2c1
inhibition: -1.09% (inactive)

Cc1cc(NC(=O)CSc2nnc3c4c(C)c(C)sc4ncn23)no1
inhibition: 14.7% (inactive)

Cc1ccc(S(=O)(=O)N(C)CCCC(=O)Nc2cc(C)ccc2C)cc1
inhibition: -2.3% (inactive)

CCS(=O)(=O)Nc1ccc(-c2cc(-c3ccccc3)c3cc(C)ccc3n2)cc1
inhibition: 0.49% (inactive)

CCc1ccc(N2CC(C(=O)Nc3cccnc3)CC2=O)cc1 (stereo not given)
inhibition: 30.5% (inactive)

COc1cc(C(=O)OCCNC(=O)c2ccncc2)cc(OC)c1OC
inhibition: 9.29% (inactive)

Cc1cc(OCC(=O)Nc2ccncc2)c(C)cc1Br
inhibition: 3.41% (inactive)

C=CCn1c(O)c(C(C)=Nc2ccc(NC(C)=O)cc2)c(=O)[nH]c1=O
inhibition: 17.3% (inactive)

COc1ccc(CNC(=O)C(CCSC)NS(=O)(=O)c2ccccc2F)cc1 (stereo not given)
inhibition: 5.1% (inactive)

CC1=NN(C(C)C)C(=O)C1
inhibition: 25.1% (inactive)

CN(C)CC1CSCCC1(O)c1ccc(Cl)cc1 (stereo not given)
inhibition: 20.4% (inactive)

CCOc1cc(-c2nn3cnnc3s2)cc(OCC)c1OCC
inhibition: 4.31% (inactive)

CC(C)(C)c1cc(OC(=O)c2ccncc2)ccc1O
inhibition: 7.95% (inactive)

N=C(N)SCc1nc2ccccc2c(=O)n1-c1ccccc1
inhibition: 9.67% (inactive)

COc1ccc(-n2nc3c(c2NC(=O)c2cc(Br)ccc2Cl)CS(=O)C3)cc1 (stereo not given)
inhibition: -1.7% (inactive)

COCCN1C(=O)N(c2cccc(C)c2)C(=O)C1CC(=O)Nc1ccc(F)cc1 (stereo not given)
inhibition: 12% (inactive)

O=C1CC(c2ccccc2)n2nc(NC(=O)C3CCCO3)nc2N1 (stereo not given)
inhibition: -5.55% (inactive)

CCCCn1c2nc3ccccc3nc2c2c(=O)n(-c3ccccc3)cnc21
inhibition: -1.49% (inactive)

C=CCNC(=S)NNC(=O)c1ccc(OCC)cc1
inhibition: 1.76% (inactive)

CCN(/N=C/c1ccc(Cl)cc1)c1cc(=O)n(C)c(=O)[nH]1
inhibition: 12.2% (inactive)

CCOC(=O)c1c(C)[nH]c(C(=O)OCCOc2ccccc2C)c1C
inhibition: 0.85% (inactive)

Cc1ccc(/C=N/n2c(=O)c(C(C)(C)C)nn3cnnc23)cc1
inhibition: 6.53% (inactive)

Cc1ccc(SCCC(=O)Nc2ccccc2C(=O)NC(C)C)cc1
inhibition: 12.3% (inactive)

O=c1c2ccccc2n2c(-c3cccc(F)c3)nnc2n1Cc1ccccc1
inhibition: -8.49% (inactive)

COc1ccc(C(=O)C2(C)N(O)C(C)C(c3cccs3)=[N+]2[O-])cc1 (stereo not given)
inhibition: 9.94% (inactive)

CC(NC(=O)COc1cccc(Br)c1)C(=O)O (stereo not given)
inhibition: 24.6% (inactive)

COc1cc(CC(=O)Oc2ccc3c(c2)OCO3)cc(OC)c1OC
inhibition: 32.5% (inactive)

COC(=O)C1=NN(c2cccc(C)c2)C2C(=O)N(c3ccccc3OC)C(=O)C12 (stereo not given)
inhibition: 8.46% (inactive)

O=C(Nc1ccc(-c2nc3cccnc3s2)cc1)c1ccc(Br)o1
inhibition: 5.96% (inactive)

OC(c1ccc2c(c1)OCO2)c1nccc2ccccc12 (stereo not given)
inhibition: 4.74% (inactive)

Cc1cc(C)n2nc(C(=O)N(C)C(c3ccccc3)c3ccccc3)nc2n1
inhibition: 7.77% (inactive)

N#CCc1ccc(NS(=O)(=O)c2cccs2)cc1
inhibition: 7.74% (inactive)

Cc1ccc2cc3c(NC(=O)C(C)C)nn(C)c3nc2c1
inhibition: 9.56% (inactive)

Cc1nn(-c2ccccc2)c2sc(C(=O)O)cc12
inhibition: 2.23% (inactive)

CC(C)CCNC(=O)c1nnc(Cc2ccc(Cl)cc2)o1
inhibition: 4.7% (inactive)

COc1ccc(C(CC(=O)NCc2ccccc2)Sc2n[nH]c(-c3ccccc3)n2)cc1 (stereo not given)
inhibition: 29.1% (inactive)

COc1ccc(C2N=C(N)N=C(N)N2c2ccccc2)cc1OC (stereo not given)
inhibition: 23% (inactive)

CCOC(=O)CSc1nc2cc(OC)ccc2cc1C#N
inhibition: 11.6% (inactive)

OCCNCCOc1ccc(Cl)c(Cl)c1
inhibition: 1.74% (inactive)

COc1c(Cl)cc(Cl)cc1C(=O)Nc1ccc(NC(C)=O)cc1
inhibition: 5.32% (inactive)

COc1ccccc1OCCn1cc(C(=O)c2ccco2)c2ccccc21
inhibition: 12.3% (inactive)

Cc1ccc(-c2cc(NC(=O)CCl)n(-c3ccccc3)n2)cc1
inhibition: -2.61% (inactive)

C=CCn1c(SCC(=O)NCc2ccccc2)nnc1-c1ccccc1O
inhibition: -0.67% (inactive)

CCn1c(SCC(=O)NCc2ccco2)nnc1-c1ccc(N)cc1
inhibition: 10.3% (inactive)

C/C(=N\Nc1cc(-c2ccccc2)nc(-c2ccccc2)n1)c1ccc(O)c(C)c1
inhibition: 5.91% (inactive)

CCOC(=O)c1c(NC(=O)CSc2nnc(C)c(=O)[nH]2)sc(C)c1C
inhibition: 8.64% (inactive)

Cn1c(CCNC(=O)C2CCCCC2)nc2cc(NC(=O)c3cccs3)ccc21
inhibition: 3.87% (inactive)

COc1ccc(NC(=O)CN(C)CC(=O)Nc2ccccc2SC)cc1
inhibition: -3.18% (inactive)

O=C(CSc1ncn(-c2ccccc2)n1)Nc1ccc2c(c1)OCCO2
inhibition: 14.5% (inactive)

CCOC(=O)CCc1nc2ccccc2[nH]c1=O
inhibition: 15.7% (inactive)

COC(=O)CSc1nc(N)nc(C)c1Br
inhibition: 3.71% (inactive)

O=C(CCCN1CCOCC1)c1ccc2c(c1)OCCO2
inhibition: 2.27% (inactive)

CN1CCN(S(=O)(=O)c2ccc(NC(=O)c3ccc(F)cc3)cc2)CC1
inhibition: 5.58% (inactive)

Cn1c(CCNC(=O)c2ccc(Cl)c(Cl)c2)nnc1SCc1ccc(Cl)c(Cl)c1
inhibition: 6.96% (inactive)

O=C1c2cccc(OCC(=O)N3CCCc4ccccc43)c2CCN1Cc1ccc(Br)cc1
inhibition: -5.27% (inactive)

Fc1ccc(-c2n[nH]c(=S)n2/N=C/c2c[nH]c3ccccc23)cc1
inhibition: 27.9% (inactive)
